Data: patent US20200015481A1, “SYNERGISTIC WEED CONTROL FROM APPLICATIONS OF PYRIDINE CARBOXYLIC ACID HERBICIDES AND PHOTOSYSTEM II INHIBITORS” (Dow AgroSciences, LLC, priority 2014, published 2020)

Legend:
[1] = tested on: ivy-leaved speedwell (VERHE, Veronica hederifolia); assay: Postemergence herbicidal activity, greenhouse (Example 3); assay type: in vivo
Description: (§1) Compound 1 was formulated as an EC and combined with bentazon, isoproturon, metribuzin and atrazine.

[2] = tested on: pigweed (Amaranthus retroflexus, AMARE); assay: as above; assay type: in vivo
Description: as §1

[3] = tested on: poinsettia (Euphorbia heterophylla, EPHHL); assay: as above; assay type: in vivo
Description: as §1

[4] = tested on: wild pansy (VIOTR, Viola tricolor); assay: as above; assay type: in vivo
Description: as §1

[5] = tested on: barnyardgrass (Echinochloa crus-galli, ECHCG); assay: as above; assay type: in vivo
Description: as §1

[6] = tested on: large crabgrass (Digitaria sanguinalis, DIGSA); assay: as above; assay type: in vivo
Description: as §1

[7] = tested on: nutsedge (Cyperus esculentus, CYPES); assay: as above; assay type: in vivo
Description: as §1

[8] = tested on: rape (Brassica napus, BRSNN); assay: as above; assay type: in vivo
Description: as §1

[9] = tested on: thistle (Cirsium arvense, CIRAR); assay: as above; assay type: in vivo
Description: as §1

[10] = tested on: velvetleaf (Abutilon theophrasti, ABUTH); assay: as above; assay type: in vivo
Description: as §1

winter wheat (TRZAW) [11] = assay: Postemergence crop phytotoxicity, greenhouse (Example 3); assay type: in vivo, Triticum aestivum; conditions: 20-22 d
Description: as §1

corn (ZEAMX) = assay: as above; assay type: in vivo, Zea mays; conditions: 20-22 d
Description: as §1

[12] = tested on: ivyleaf morningglory (Ipomoea hederacea, IPOHE); assay: Postemergence herbicidal activity, greenhouse (Example 2); assay type: in vivo; conditions: 20-22 d
Description: (§2) Stocks solutions of the compound mixtures were prepared following the same procedure.

[13] = tested on: nutsedge (Cyperus esculentus, CYPES); assay: as above; assay type: in vivo; conditions: 20-22 d
Description: as §2

[14] = tested on: pigweed (AMARE, Amaranthus retroflexus); assay: as above; assay type: in vivo; conditions: 20-22 d
Description: as §2

[15] = tested on: poinsettia (Euphorbia heterophylla, EPHHL); assay: as above; assay type: in vivo; conditions: 20-22 d
Description: as §2

maize (ZEAMX) = assay: Postemergence crop phytotoxicity, greenhouse (Example 2)
Description: as §2

winter wheat (TRZAW) [16] = assay: as above
Description: as §2

winter wheat (TRZAW) [17] = assay: Postemergence crop phytotoxicity, greenhouse (Example 1); conditions: 20-22 d
spring barley (HORVS) = assay: as above; conditions: Bromoxynil 70 g ai/ha, 20-22 d
[18] = tested on: pigweed (AMARE, Amaranthus retroflexus); assay: Postemergence herbicidal activity, greenhouse (Example 1); conditions: 20-22 d
[19] = tested on: thistle (CIRAR, Cirsium arvense); assay: as above; conditions: 20-22 d
[20] = tested on: common sunflower (Helianthus annuus, HELAN); assay: Postemergence herbicidal activity, greenhouse (Example 3); assay type: in vivo
Description: as §1

rice (ORYSA) = assay: Postemergence crop phytotoxicity, greenhouse (Example 3); assay type: in vivo, Oryza sativa
Description: as §1

[21] = Compound 1 5 g ae/ha, 20-22 d (Tables 4-6)
[22] = Compound 1 5 g ae/ha, 20-22 d (Table 7)
[23] = Isoproturon 150 g ai/ha, 20-22 d

CCNc1nc(Cl)nc(NC(C)C)n1 [Atrazine]
Effect (% visual injury) Obs ([1]; Atrazine 450 g ai/ha, 20-22 d): 45% | Effect (% visual injury) Obs ([2]; Atrazine 450 g ai/ha, 20-22 d): 50% | Effect (% visual injury) Obs ([3]; Atrazine 450 g ai/ha, 20-22 d): 0% | Effect (% visual injury) Obs ([4]; Atrazine 450 g ai/ha, 20-22 d): 5%

CC(C)N1C(=O)c2ccccc2NS1(=O)=O [Bentazon]
Effect (% visual injury) Obs ([5]; Bentazon 60 g ai/ha, 20-22 d): 0% | Effect (% visual injury) Obs ([6]; Bentazon 60 g ai/ha, 20-22 d): 0% | Effect (% visual injury) Obs ([7]; Bentazon 60 g ai/ha, 20-22 d): 0% | Effect (% visual injury) Obs ([2]; Bentazon 60 g ai/ha, 20-22 d): 10% | Effect (% visual injury) Obs ([3]; Bentazon 60 g ai/ha, 20-22 d): 0% | Effect (% visual injury) Obs ([8]; Bentazon 60 g ai/ha, 20-22 d): 20% | Effect (% visual injury) Obs ([9]; Bentazon 60 g ai/ha, 20-22 d): 0% | Effect (% visual injury) Obs ([10]; Bentazon 60 g ai/ha, 20-22 d): 0% | Effect (% visual injury) Obs (winter wheat (TRZAW) [11]; Bentazon 60 g ai/ha): 0% | Effect (% visual injury) Obs (corn (ZEAMX); Bentazon 60 g ai/ha): 0%

N#Cc1cc(Br)c(O)c(Br)c1 [Bromoxynil]
Effect (% visual injury) Obs ([12]; Bromoxynil 70 g ai/ha): 25% | Effect (% visual injury) Obs ([13]; Bromoxynil 70 g ai/ha): 0% | Effect (% visual injury) Obs ([14]; Bromoxynil 70 g ai/ha): 20% | Effect (% visual injury) Obs ([15]; Bromoxynil 70 g ai/ha): 5% | Effect (% visual injury) Obs (maize (ZEAMX); ZEAMX, Bromoxynil 70 g ai/ha, postemergence, 20-22 d): 0% | Effect (% visual injury) Obs (winter wheat (TRZAW) [16]; TRZAW, Bromoxynil 70 g ai/ha, postemergence, 20-22 d): 0% | Effect (% visual injury) Obs (winter wheat (TRZAW) [17]; Bromoxynil 70 g ai/ha): 0% | Effect (% visual injury) Obs (winter wheat (TRZAW) [17]; Bromoxynil 140 g ai/ha): 0% | Effect (% visual injury) Obs (spring barley (HORVS)): 0% | Effect (% visual injury) Obs ([18]; Bromoxynil 140 g ai/ha): 0% | Effect (% visual injury) Obs ([19]; Bromoxynil 70 g ai/ha): 40%

Nc1c(F)c(-c2ccc3cc[nH]c3c2F)nc(C(=O)O)c1Cl [Compound 1]
Effect (% visual injury) Obs [5, 21]: 60% | Effect (% visual injury) Obs [20, 21]: 97% | Effect (% visual injury) Obs [1, 22]: 40% | Effect (% visual injury) Obs [6, 21]: 0% | Effect (% visual injury) Obs [7, 21]: 10% | Effect (% visual injury) Obs [2, 22]: 65% | Effect (% visual injury) Obs [2, 21]: 93% | Effect (% visual injury) Obs [3, 22]: 97% | Effect (% visual injury) Obs [3, 21]: 97% | Effect (% visual injury) Obs [8, 21]: 50% | Effect (% visual injury) Obs [9, 21]: 20% | Effect (% visual injury) Obs [10, 21]: 10% | Effect (% visual injury) Obs [4, 22]: 5% | Effect (% visual injury) Obs [4, 21]: 10% | Effect (% visual injury) Obs (rice (ORYSA); Oryza sativa (rice), in vivo): 0%

Nc1c(F)c(-c2ccc3cc[nH]c3c2F)nc(C(=O)OCc2ccccc2)c1Cl [Compound 2]
Effect (% visual injury) Obs ([12]; Compound 2 5 g ae/ha): 10% | Effect (% visual injury) Obs ([12]; Compound 2 10 g ae/ha): 20% | Effect (% visual injury) Obs ([13]; Compound 2 5 g ae/ha): 5% | Effect (% visual injury) Obs ([13]; Compound 2 10 g ae/ha): 10% | Effect (% visual injury) Obs ([14]; Compound 2 5 g ae/ha): 88% | Effect (% visual injury) Obs ([14]; Compound 2 10 g ae/ha): 100% | Effect (% visual injury) Obs ([15]; Compound 2 5 g ae/ha): 35% | Effect (% visual injury) Obs ([15]; Compound 2 10 g ae/ha): 75% | Effect (% visual injury) Obs (maize (ZEAMX); Zea mays (maize), in vivo): 3% | Effect (% visual injury) Obs (winter wheat (TRZAW) [16]; Triticum aestivum (winter wheat), in vivo): 3%

Nc1c(F)c(-c2ccc3cc[nH]c3c2F)nc(C(=O)[O-])c1Cl.[K+] [Compound 7]
Effect (% visual injury) Obs ([18]; Compound 7 8.75 g ae/ha): 70% | Effect (% visual injury) Obs ([19]; Compound 7 5 g ae/ha): 50% | Effect (% visual injury) Obs ([19]; Compound 7 10 g ae/ha): 65%

CC(C)c1ccc(NC(=O)N(C)C)cc1 [Isoproturon]
Effect (% visual injury) Obs [5, 23]: 0% | Effect (% visual injury) Obs [20, 23]: 0% | Effect (% visual injury) Obs [7, 23]: 0% | Effect (% visual injury) Obs [8, 23]: 0% | Effect (% visual injury) Obs [9, 23]: 10% | Effect (% visual injury) Obs [4, 23]: 0%

CSc1nnc(C(C)(C)C)c(=O)n1N [Metribuzin]
Effect (% visual injury) Obs ([5]; Metribuzin 25 g ai/ha, 20-22 d): 0% | Effect (% visual injury) Obs ([7]; Metribuzin 25 g ai/ha, 20-22 d): 0% | Effect (% visual injury) Obs ([2]; Metribuzin 25 g ai/ha, 20-22 d): 10% | Effect (% visual injury) Obs ([3]; Metribuzin 25 g ai/ha, 20-22 d): 0% | Effect (% visual injury) Obs ([8]; Metribuzin 25 g ai/ha, 20-22 d): 0% | Effect (% visual injury) Obs ([9]; Metribuzin 25 g ai/ha, 20-22 d): 10% | Effect (% visual injury) Obs (winter wheat (TRZAW) [11]; Metribuzin 25 g ai/ha): 0% | Effect (% visual injury) Obs (corn (ZEAMX); Metribuzin 25 g ai/ha): 0% | Effect (% visual injury) Obs (rice (ORYSA); ORYSA, Metribuzin 25 g ai/ha, postemergence, 20-22 d): 0%
